pIC50: −log10 of the molar value.
Test system: 857933-349-R-J2-PDC complex spheroids, viability
Assay: Anticancer human tumor 857933-349-R-J2-PDC patient-derived colon adenocarcinoma cell line growth inhibition [GQUAD]
Conditions: for pIC50: curve of first compound; for viability, T/C: stronger effect = lower value
Procedure, shortened: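 Viability of tumor cells grown as complex spheroids with endothelial and stromal cells, exposed to drug combinations. Top concentration at or near clinical Cmax (else 10 microM), diluted in half-log increments.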

[1] = second compound 0.0316 µM, first compound 0.0316 µM
[2] = second compound 0.0316 µM, first compound 0.1 µM
[3] = second compound 0.0316 µM, first compound 0.316 µM
[4] = second compound 0.0316 µM, first compound 1 µM
[5] = second compound 0.0316 µM, first compound 3.16 µM
[6] = second compound 0.0316 µM, first compound 10 µM
[7] = second compound 0.1 µM, first compound 0.0316 µM
[8] = second compound 0.1 µM, first compound 0.1 µM
[9] = second compound 0.1 µM, first compound 0.316 µM
[10] = second compound 0.1 µM, first compound 1 µM
[11] = second compound 0.1 µM, first compound 3.16 µM
[12] = second compound 0.1 µM, first compound 10 µM
[13] = second compound 0.316 µM, first compound 0.0316 µM
[14] = second compound 0.316 µM, first compound 0.1 µM
[15] = second compound 0.316 µM, first compound 0.316 µM
[16] = second compound 0.316 µM, first compound 1 µM
[17] = second compound 0.316 µM, first compound 3.16 µM
[18] = second compound 0.316 µM, first compound 10 µM
[19] = second compound 1 µM, first compound 0.0316 µM
[20] = second compound 1 µM, first compound 0.1 µM
[21] = second compound 1 µM, first compound 0.316 µM
[22] = second compound 1 µM, first compound 1 µM
[23] = second compound 1 µM, first compound 3.16 µM
[24] = second compound 1 µM, first compound 10 µM
[25] = second compound 3.16 µM, first compound 0.0316 µM
[26] = second compound 3.16 µM, first compound 0.1 µM
[27] = second compound 3.16 µM, first compound 0.316 µM
[28] = second compound 3.16 µM, first compound 1 µM
[29] = second compound 3.16 µM, first compound 3.16 µM
[30] = second compound 3.16 µM, first compound 10 µM
[31] = second compound 10 µM, first compound 0.0316 µM
[32] = second compound 10 µM, first compound 0.1 µM
[33] = second compound 10 µM, first compound 0.316 µM
[34] = second compound 10 µM, first compound 1 µM
[35] = second compound 10 µM, first compound 3.16 µM
[36] = second compound 10 µM, first compound 10 µM
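Further: spheroids exposed to compounds for one week before readout.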
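Wherever viability, T/C is given: percent viability relative to vehicle DMSO wells taken as 100%.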

## CCCS(=O)(=O)Nc1ccc(F)c(C(=O)c2c[nH]c3ncc(-c4ccc(Cl)cc4)cc23)c1F + Cc1[nH]c2ccc(F)cc2c1-c1nc2c3cccnc3c3ncccc3c2[nH]1
Second compound 0.0316 µM
  pIC50: 5.27
Second compound 0.1 µM
  pIC50: 5.28
Second compound 0.316 µM
  pIC50: 5.28
Second compound 1 µM
  pIC50: 5.29
Second compound 3.16 µM
  pIC50: 5.30
Second compound 10 µM
  pIC50: 5.32
[1]
  viability, T/C: 101%
[2]
  viability, T/C: 98.1%
[3]
  viability, T/C: 94.7%
[4]
  viability, T/C: 115%
[5]
  viability, T/C: 89.8%
[6]
  viability, T/C: 4.88%
[7]
  viability, T/C: 97.8%
[8]
  viability, T/C: 97.7%
[9]
  viability, T/C: 102%
[10]
  viability, T/C: 105%
[11]
  viability, T/C: 85%
[12]
  viability, T/C: 4.75%
[13]
  viability, T/C: 97.8%
[14]
  viability, T/C: 97.5%
[15]
  viability, T/C: 96%
[16]
  viability, T/C: 94.3%
[17]
  viability, T/C: 84.4%
[18]
  viability, T/C: 5.8%
[19]
  viability, T/C: 97.1%
[20]
  viability, T/C: 85.1%
[21]
  viability, T/C: 90.2%
[22]
  viability, T/C: 82.8%
[23]
  viability, T/C: 81.1%
[24]
  viability, T/C: 6.53%
[25]
  viability, T/C: 84.4%
[26]
  viability, T/C: 74.2%
[27]
  viability, T/C: 79.1%
[28]
  viability, T/C: 74.2%
[29]
  viability, T/C: 82.9%
[30]
  viability, T/C: 6.5%
[31]
  viability, T/C: 82.7%
[32]
  viability, T/C: 85.2%
[33]
  viability, T/C: 80.5%
[34]
  viability, T/C: 84.5%
[35]
  viability, T/C: 73.7%
[36]
  viability, T/C: 6.22%

## COc1ncnc(C2CC2)c1-c1ncc2cnn(Cc3ccc(-c4nc(C(F)(F)F)cn4C(C)C)cc3)c2n1 + Cc1[nH]c2ccc(F)cc2c1-c1nc2c3cccnc3c3ncccc3c2[nH]1
Second compound 0.0316 µM
  pIC50: < 5.00
Second compound 0.1 µM
  pIC50: < 5.00
Second compound 0.316 µM
  pIC50: < 5.00
Second compound 1 µM
  pIC50: < 5.00
Second compound 3.16 µM
  pIC50: < 5.00
Second compound 10 µM
  pIC50: < 5.00
[1]
  viability, T/C: 102%
[2]
  viability, T/C: 104%
[3]
  viability, T/C: 99%
[4]
  viability, T/C: 104%
[5]
  viability, T/C: 109%
[6]
  viability, T/C: 103%
[7]
  viability, T/C: 106%
[8]
  viability, T/C: 106%
[9]
  viability, T/C: 107%
[10]
  viability, T/C: 106%
[11]
  viability, T/C: 98%
[12]
  viability, T/C: 102%
[13]
  viability, T/C: 102%
[14]
  viability, T/C: 100%
[15]
  viability, T/C: 96.1%
[16]
  viability, T/C: 100%
[17]
  viability, T/C: 94.3%
[18]
  viability, T/C: 95.6%
[19]
  viability, T/C: 102%
[20]
  viability, T/C: 91.4%
[21]
  viability, T/C: 96.3%
[22]
  viability, T/C: 87.9%
[23]
  viability, T/C: 98.4%
[24]
  viability, T/C: 90.7%
[25]
  viability, T/C: 98%
[26]
  viability, T/C: 83.1%
[27]
  viability, T/C: 84.5%
[28]
  viability, T/C: 83.2%
[29]
  viability, T/C: 92.5%
[30]
  viability, T/C: 83.4%
[31]
  viability, T/C: 86.3%
[32]
  viability, T/C: 87.7%
[33]
  viability, T/C: 84.6%
[34]
  viability, T/C: 91.3%
[35]
  viability, T/C: 90.3%
[36]
  viability, T/C: 88.2%

## Cc1[nH]c2ccccc2c1CCNCc1ccc(/C=C/C(=O)NO)cc1 + Cc1[nH]c2ccc(F)cc2c1-c1nc2c3cccnc3c3ncccc3c2[nH]1
Second compound 0.0316 µM
  pIC50: < 6.50
Second compound 0.1 µM
  pIC50: < 6.50
Second compound 0.316 µM
  pIC50: < 6.50
Second compound 1 µM
  pIC50: < 6.50
Second compound 3.16 µM
  pIC50: < 6.50
Second compound 10 µM
  pIC50: < 6.50
Second compound 0.0316 µM, first compound 0.000999 µM
  viability, T/C: 103%
Second compound 0.0316 µM, first compound 0.00316 µM
  viability, T/C: 95.8%
Second compound 0.0316 µM, first compound 0.00999 µM
  viability, T/C: 97.6%
[1]
  viability, T/C: 104%
Second compound 0.0316 µM, first compound 0.0999 µM
  viability, T/C: 94%
[3]
  viability, T/C: 59.1%
Second compound 0.1 µM, first compound 0.000999 µM
  viability, T/C: 104%
Second compound 0.1 µM, first compound 0.00316 µM
  viability, T/C: 101%
Second compound 0.1 µM, first compound 0.00999 µM
  viability, T/C: 102%
[7]
  viability, T/C: 106%
Second compound 0.1 µM, first compound 0.0999 µM
  viability, T/C: 99.7%
[9]
  viability, T/C: 60.7%
Second compound 0.316 µM, first compound 0.000999 µM
  viability, T/C: 101%
Second compound 0.316 µM, first compound 0.00316 µM
  viability, T/C: 104%
Second compound 0.316 µM, first compound 0.00999 µM
  viability, T/C: 96%
[13]
  viability, T/C: 92.8%
Second compound 0.316 µM, first compound 0.0999 µM
  viability, T/C: 107%
[15]
  viability, T/C: 59.2%
Second compound 1 µM, first compound 0.000999 µM
  viability, T/C: 109%
Second compound 1 µM, first compound 0.00316 µM
  viability, T/C: 90%
Second compound 1 µM, first compound 0.00999 µM
  viability, T/C: 93.7%
[19]
  viability, T/C: 97.7%
Second compound 1 µM, first compound 0.0999 µM
  viability, T/C: 105%
[21]
  viability, T/C: 61.4%
Second compound 3.16 µM, first compound 0.000999 µM
  viability, T/C: 90.8%
Second compound 3.16 µM, first compound 0.00316 µM
  viability, T/C: 79.8%
Second compound 3.16 µM, first compound 0.00999 µM
  viability, T/C: 86.2%
[25]
  viability, T/C: 88%
Second compound 3.16 µM, first compound 0.0999 µM
  viability, T/C: 104%
[27]
  viability, T/C: 66.8%
Second compound 10 µM, first compound 0.000999 µM
  viability, T/C: 87%
Second compound 10 µM, first compound 0.00316 µM
  viability, T/C: 89.4%
Second compound 10 µM, first compound 0.00999 µM
  viability, T/C: 88.1%
[31]
  viability, T/C: 95.3%
Second compound 10 µM, first compound 0.0999 µM
  viability, T/C: 105%
[33]
  viability, T/C: 61%

## O=C(NO)c1cnc(N2CCN(S(=O)(=O)c3ccc4ccccc4c3)CC2)nc1 + Cc1[nH]c2ccc(F)cc2c1-c1nc2c3cccnc3c3ncccc3c2[nH]1
Second compound 0.0316 µM
  pIC50: 5.82
Second compound 0.1 µM
  pIC50: 5.80
Second compound 0.316 µM
  pIC50: 5.79
Second compound 1 µM
  pIC50: 5.77
Second compound 3.16 µM
  pIC50: 5.80
Second compound 10 µM
  pIC50: 5.75
[1]
  viability, T/C: 107%
[2]
  viability, T/C: 96.5%
[3]
  viability, T/C: 107%
[4]
  viability, T/C: 79%
[5]
  viability, T/C: 1.25%
[6]
  viability, T/C: 0.26%
[7]
  viability, T/C: 109%
[8]
  viability, T/C: 103%
[9]
  viability, T/C: 100%
[10]
  viability, T/C: 81.9%
[11]
  viability, T/C: 2.07%
[12]
  viability, T/C: 0.2%
[13]
  viability, T/C: 101%
[14]
  viability, T/C: 100%
[15]
  viability, T/C: 96.1%
[16]
  viability, T/C: 80.5%
[17]
  viability, T/C: 6.68%
[18]
  viability, T/C: 0.19%
[19]
  viability, T/C: 94.7%
[20]
  viability, T/C: 92.4%
[21]
  viability, T/C: 98.2%
[22]
  viability, T/C: 84.8%
[23]
  viability, T/C: 7.25%
[24]
  viability, T/C: 0.23%
[25]
  viability, T/C: 93.1%
[26]
  viability, T/C: 93.7%
[27]
  viability, T/C: 96.1%
[28]
  viability, T/C: 80.8%
[29]
  viability, T/C: 4.92%
[30]
  viability, T/C: 0.25%
[31]
  viability, T/C: 95.7%
[32]
  viability, T/C: 94.2%
[33]
  viability, T/C: 99.2%
[34]
  viability, T/C: 93.6%
[35]
  viability, T/C: 5.75%
[36]
  viability, T/C: 0.31%
